This passage reports IC50 results from patent publication US7618960B2, “Morpholine type cinnamide compound” (Eisai R&D Management Co., Ltd., priority 2005, dated 2009).

Each structure is given as a SMILES string.

This experiment has as its system Aβ42 production. The experiment can be described thus: Quantification of Aβ peptide in culture of neurons from rat fetus brain (Aβ ELISA). The conditions noted are these: Neuron, 72 h; rat primary neuronal culture (cerebral cortex, embryonic day 18 Wistar rats); medium collected three days after addition of compound; Aβx-42 ELISA; read-out: Activity for reducing Aβ42 production IC50. The experiment is classed as cell-based. As to the method:
Quantification of Aβ Peptide in Culture of Neurons from Rat Fetus Brain
(1) Rat Primary Neuronal Culture
Primary neuronal cultures were prepared from the cerebral cortex of embryonic day 18 Wistar rats (Charles River Japan, Yokohama, Japan). Specifically, the embryos were aseptically removed from pregnant rats under ether anesthesia. The brain was isolated from the embryo and immersed in an ice-cold L-15 medium (Invitrogen Corp. Cat #11415-064, Carlsbad, Calif., USA, or SIGMA L1518, for example). The cerebral cortex was collected from the isolated brain under a stereoscopic microscope. The cerebral cortex fragments collected were enzymatically treated in an enzyme solution containing 0.25% trypsin (Invitrogen Corp. Cat #15050-065, Carlsbad, Calif., USA) and 0.01% DNase (Sigma D5025, St. Louis, Mo., USA) at 37° C. for 30 minutes to disperse the cells. Here, the enzymatic reaction was stopped by adding inactivated horse serum to the solution. The enzymatically treated solution was centrifuged at 1,500 rpm for five minutes to remove the supernatant. 5 to 10 ml of a medium was added to the resulting cell mass. Neurobasal medium (Invitrogen Corp. Cat #21103-049, Carlsbad, Calif., USA) supplemented with 2% B27 supplement (Invitrogen Corp. Cat #17504-044, Carlsbad, Calif., USA), 25 μM 2-mercaptoethanol (2-ME, WAKO Cat #139-06861, Osaka, Japan), 0.5 mM L-glutamine (Invitrogen Corp. Cat #25030-081, Carlsbad, Calif., USA), and Antibiotics-Antimycotics (Invitrogen Corp. Cat #15240-062, Carlsbad, Calif., USA) was used as the medium (Neurobasal/B27/2-ME). However, the above Neurobasal medium not supplemented with 2-ME (Neurobasal/B27) was used for the assay. The cells were redispersed by mild pipetting of the cell mass to which the medium was added. The cell dispersion was filtered through a 40-μm nylon mesh (Cell Strainer, Cat #35-2340, Becton Dickinson Labware, Franklin Lakes, N.J., USA) to remove the remaining cell mass, and thus a neuronal cell suspension was obtained. The neuronal cell suspension was diluted with the medium and then plated in a volume of 100 μl/well at an initial cell density of 5×10^5 cells/cm^2 in a 96-well polystyrene culture plate pre-coated with poly-L or D-lysine (Falcon Cat #35-3075, Becton Dickinson Labware, Franklin Lakes, N.J., USA coated with poly-L-lysine using the method shown below, or BIOCOAT™ cell environments Poly-D-lysine cell ware 96-well plate, Cat #35-6461, Becton Dickinson Labware, Franklin Lakes, N.J., USA). Poly-L-lysine coating was carried out as follows. 100 μg/ml of a poly-L-lysine (SIGMA P2636, St. Louis, Mo., USA) solution was aseptically prepared with a 0.15 M borate buffer (pH 8.5). 100 μl/well of the solution was added to the 96-well polystyrene culture plate and incubated at room temperature for one or more hours or at 4° C. overnight or longer. The coated 96-well polystyrene culture plate was washed with sterile water four or more times, and then dried or rinsed with, for example, sterile PBS or medium, and used for cell plating. The plated cells were cultured in the culture plate at 37° C. in 5% […]-95% air for one day. Then, the total amount of the medium was replaced with a fresh Neurobasal™/B27/2-ME medium, and then the cells were cultured for further three days.
The drug was added to the culture plate on Day 4 of culture as follows. The total amount of the medium was removed from the wells, and 180 μl/well of Neurobasal medium not containing 2-ME and containing 2% B-27 (Neurobasal/B27) was added thereto. A solution of the test compound in dimethyl sulfoxide (hereinafter abbreviated as DMSO) was diluted with Neurobasal/B27 so that the initial concentration was at 10-fold of the final concentration. 20 μl/well of the dilution was added to and sufficiently mixed with the medium. The final DMSO concentration was 1% or less. Only DMSO was added to the control group.
The cells were cultured for three days after addition of the compound, and the total amount of the medium was collected. […]
(An ELISA detects its analyte on a solid surface through an enzyme-linked reagent.)

Take `Cc1cn(-c2ccc(/C=C3\O[C@@H](C)CN([C@H](c4cc(F)c(F)c(F)c4)[C@@H](C)O)C3=O)cc2F)cn1` [Example 74, (Z)-(S)-2-[1-[3-fluoro-4-(4-methyl-1H-imidazol-1-yl)phenyl]methylidene]-4-[(1R,2R)-2-hydroxy-1-(3,4,5-trifluorophenyl)propyl]-6-methylmorpholin-3-one]: the IC50 (usually the concentration needed to halve the response being measured) came to 140 nM.
The result for `COc1cc(/C=C2\O[C@@H](C)CN(Cc3cc(F)c(F)c(F)c3)C2=O)ccc1-n1cnc(C)c1` [Example 3, (Z)-(S)-2-[1-[3-methoxy-4-(4-methyl-1H-imidazol-1-yl)phenyl]methylidene]-6-methyl-4-(3,4,5-trifluorobenzyl)morpholin-3-one] reads 41 nM.
For `COc1cc(/C=C2\OCCN(Cc3cc(F)c(F)c(F)c3)C2=O)ccc1-n1cnc(C)c1` [Example 1, (Z)-2-[1-[3-methoxy-4-(4-methyl-1H-imidazol-1-yl)phenyl]methylidene]-4-(3,4,5-trifluorobenzyl)morpholin-3-one], the IC50 was determined as 77 nM.
Take `COc1cc(/C=C2\OC[C@H]3COC[C@@H](c4ccc(Cl)cc4)N3C2=O)ccc1-n1cnc(C)c1` [Example 111, (6R,9aR)-6-(4-chlorophenyl)-3-[1-[3-methoxy-4-(4-methyl-1H-imidazol-1-yl)phenyl]-(Z)-methylidene]tetrahydro[1,4]oxadino[3,4-c]oxadine-4-one]: the IC50 was 129 nM.
In the case of `COc1cc(/C=C2\O[C@@H](C)CN([C@@H](C)c3ccc(F)cc3)C2=O)ccc1-n1cnc(C)c1` [Example 9, (Z)-(S)-4-[(S)-1-(4-fluorophenyl)ethyl]-2-[1-[3-methoxy-4-(4-methyl-1H-imidazol-1-yl)phenyl]methylidene]-6-methylmorpholin-3-one] it was 60 nM.
The result for `COc1cc(/C=C2\O[C@@H](C)CN([C@H](C)c3ccnc(F)c3F)C2=O)ccc1-n1cnc(C)c1` [Example 25, (Z)-(S)-4-[(R)-1-(2,3-difluoropyridin-4-yl)ethyl]-2-[1-[3-methoxy-4-(4-methyl-1H-imidazol-1-yl)phenyl]methylidene]-6-methylmorpholin-3-one] reads 141 nM; that for `COc1cc(/C=C2\O[C@@H](C)CN([C@H](c3ccc(F)cc3)[C@@H](C)O)C2=O)ccc1-n1cnc(C)c1` [Example 32, (Z)-(S)-4-[(1R,2R)-1-(4-fluorophenyl)-2-hydroxypropyl]-2-[1-[3-methoxy-4-(4-methyl-1H-imidazol-1-yl)phenyl]methylidene]-6-methylmorpholin-3-one], 41 nM.
Regarding `COc1cc(/C=C2\O[C@@H](C)CN([C@@H](C)c3cc(F)c(F)c(F)c3)C2=O)ccc1-n1cnc(C)c1` [Example 37, (Z)-(6S)-2-[1-[3-methoxy-4-(4-methyl-1H-imidazol-1-yl)phenyl]methylidene]-6-methyl-4-[(S)-1-(3,4,5-trifluorophenyl)ethyl]morpholin-3-one], the IC50 came to 20 nM.
The result for `COc1cc(/C=C2\O[C@H](C)CN(Cc3ccc(F)c(F)c3F)C2=O)ccc1-n1cnc(C)c1` [Example 6, (Z)-(R)-2-[1-[3-methoxy-4-(4-methyl-1H-imidazol-1-yl)phenyl]methylidene]-6-methyl-4-(2,3,4-trifluorobenzyl)morpholin-3-one] reads 156 nM; that for `COc1cc(/C=C2\OCCN(Cc3ccc(F)c(F)c3F)C2=O)ccc1-n1cnc(C)c1` [Example 2, (Z)-2-[1-[3-methoxy-4-(4-methyl-1H-imidazol-1-yl)phenyl]methylidene]-4-(2,3,4-trifluorobenzyl)morpholin-3-one], 187 nM.
Regarding `COc1cc(/C=C2\O[C@@H](C)CN([C@@H](C)c3ccnc(F)c3F)C2=O)ccc1-n1cnc(C)c1` [Example 24, (Z)-(S)-4-[(S)-1-(2,3-difluoropyridin-4-yl)ethyl]-2-[1-[3-methoxy-4-(4-methyl-1H-imidazol-1-yl)phenyl]methylidene]-6-methylmorpholin-3-one], the IC50 was determined as 36 nM.
In the case of `COc1cc(/C=C2\OC[C@H]3CCC[C@@H](c4ccc(Cl)cc4)N3C2=O)ccc1-n1cnc(C)c1` [Example 107, (6S,9aR)-6-(4-chlorophenyl)-3-{1-[3-methoxy-4-(4-methyl-1H-imidazol-1-yl)phenyl]-(Z)-methylidene}hexahydropyrido[2,1-c][1,4]oxazin-4-one] it was 78 nM; in that of `COc1cc(/C=C2\O[C@@H](C)CN([C@H](C)c3ccc(Cl)nc3)C2=O)ccc1-n1cnc(C)c1` [Example 19, (Z)-(S)-4-[(R)-1-(6-chloropyridin-3-yl)ethyl]-2-[1-[3-methoxy-4-(4-methyl-1H-imidazol-1-yl)phenyl]methylidene]-6-methylmorpholin-3-one], 54 nM.
